Measured values as given in PMC2137936, “Molecular Analysis of Thymopentin Binding to HLA-DR Molecules” (PLoS ONE, 2007).
No end group written: not given here.

Columns and labels:
[1] = tested on: HLA-DR on the surface of EBV-transformed B cells; assay: Direct binding of FITC-labeled TP5 to EBV-transformed B cells (flow cytometry); set-up: species or system human
Description: Therefore, a quantitative flow cytometric assay was used to get a better insight into the binding affinity of TP5 to HLA-DR on the surface of EBV-transformed B cells. […] Simultaneously, a correlation with R^2 = 0.9903 and a slope of 0.01311 were obtained. We then compared the specific binding of FITC-labeled TP5 to HLA-DR.
EBV-transformed B cells expressing HLA-DR molecules were maintained in RPMI 1640 containing 2 mM L-glutamine (HyClone Laboratories, UT, USA) supplemented with 10% standard FBS (HyClone Laboratories, UT, USA) at 37°C and in 5% CO2. Expression of HLA-DR was verified using mAb-DR L243 labeled with FITC (Pharmingen, San Diego, USA), by incubation for 45 min on ice followed by CLSM and FCM.
EBV-transformed B cells (3×10^5 per sample) were incubated with various concentrations of FITC-labeled TP5 in binding buffer for 2 h at 37°C. Thereafter, the cells were washed twice and resuspended in 500 µl PBS, followed by flow cytometric analysis using a FACSCan analyzer (Becton Dickinson Immunochemical Systems, Mountain View, USA). A total of ten thousand events were acquired for each sample. The MFI was used to evaluate the binding ability of FITC-labeled TP5 to APC.

[2] = tested on: EBV-transformed B cells expressing HLA-DR; assay: Cellular peptide loading assay (CLSM uptake); type: cell-based, human; details: 10 µM, 2 h at 37°C, excitation 488 nm
Description: To validate the ability of FITC-labeled TP5 to load on EBV-transformed B cells expressing HLA-DR, a qualitative CLSM assay was used to examine the fluorescent signal of EBV-transformed B cells. The surface fluorescence was hardly observed from the cells in the absence of FITC-labeled TP5 at the excitation of 488 nm (Fig. 1A).
We harvested 3×10^5 cells, washed twice with phosphate-buffered saline (PBS) buffer (pH 7.4) supplemented with 0.1% BSA and 0.05% NaN3. Ten µM FITC- labeled TP5 was added to the treated cells in PBS (pH 7.4) containing 1% BSA (binding buffer), then incubated for 2 h at 37°C. Thereafter, the cells were washed twice and resuspended in 500 µl PBS, followed by CLSM analysis using Leica Microsystems (TCS SP2, Heidelberg, Germany).

FITC-labeled TP5: TP5 conjugated with fluorescein isothiocyanate (FITC) (RKDVY; also: FITC label, position not given here)
cells stained above the background ([1]; flow cytometry histogram of fluorescence intensities, EBV-transformed B cells (Fig. 4)): 94%
increase in mean fluorescence intensity (MFI) above background ([1]; flow cytometry, EBV-transformed B cells versus PBS alone (Fig. 4)): approximately 3 orders of magnitude
surface fluorescence of cells (uptake) [2]: strong surface fluorescence
